Test results from PubChem BioAssay (NCI).
Values joined by “and” are separate entries in the source; they are usually repeats but may differ in a detail not shown here. Equal entries are not always repeated.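 Interpolation was linear, between the two tested concentrations surrounding the appropriate level; five concentrations were tested over 48 hours in 96-well plates. Here, GI50 denotes the concentration required for 50% inhibition of growth. TGI marks complete inhibition of growth.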

What was measured:
Assay in all cases: growth of human tumour cells (NCI), 48 h
HCT-116 colon = system: HCT-116 colon
CAKI-1 renal = system: CAKI-1 renal
NCI-H226 lung = system: NCI-H226 lung
HOP-92 NSCLC = system: HOP-92 NSCLC
MCF7 breast = system: MCF7 breast
SK-MEL-28 melanoma = system: SK-MEL-28 melanoma
MALME-3M melanoma = system: MALME-3M melanoma
SK-MEL-5 melanoma = system: SK-MEL-5 melanoma
DLD-1 colon = system: DLD-1 colon
M19-MEL melanoma = system: M19-MEL melanoma

Structure (SMILES) | TGI (HCT-116 colon) | TGI (CAKI-1 renal) | TGI (NCI-H226 lung) | TGI (HOP-92 NSCLC) | TGI (MCF7 breast) | TGI (SK-MEL-28 melanoma) | TGI (MALME-3M melanoma) | TGI (SK-MEL-5 melanoma) | TGI (DLD-1 colon) | TGI (M19-MEL melanoma) | GI50 (HCT-116 colon) | GI50 (CAKI-1 renal) | GI50 (NCI-H226 lung) | GI50 (HOP-92 NSCLC) | GI50 (MCF7 breast) | GI50 (SK-MEL-28 melanoma) | GI50 (MALME-3M melanoma) | GI50 (SK-MEL-5 melanoma)
CC(C)c1ccc(O)c(O)c(=O)c1 (tested in a mixture with another compound) | > 42.9 µM | > 52.2 µM | > 23.4 µM | > 83 µM | > 100 µM | 23.8 µM | 5.44 µM | 8.13 µM | – | – | – | – | – | – | – | – | – | –
Cn1c(=O)c2[nH]cnc2n(CC(=O)O)c1=O | > 100 µM | > 100 µM | > 100 µM | > 100 µM | – | > 100 µM | > 100 µM | > 100 µM | > 100 µM | > 100 µM | – | – | – | – | – | – | – | –
O/N=C1/C(=C/c2ccccc2)CCCC1C(NO)c1ccccc1 (centres undefined) | > 100 µM | – | – | > 100 µM | – | > 100 µM | > 100 µM | – | – | > 100 µM | – | – | – | – | – | – | – | –
CN(Cc1ccccc1)c1nc(=[N+](C)C)ss1 | > 100 µM | > 100 µM | > 100 µM | > 100 µM | – | > 100 µM | > 100 µM | > 100 µM | > 100 µM | > 100 µM | – | – | – | – | – | – | – | –
O=C(Nc1ccc([N+](=O)[O-])cc1)c1cc2ccccc2cc1O | 1.32 µM | 0.955 µM | 5.37 µM | 0.557 µM | 11.3 µM | > 36.5 µM | 1.11 µM | 0.534 µM | – | – | 0.319 µM | 0.26 µM | 0.503 µM | 0.172 µM | 1.32 µM | 0.448 µM | 0.258 µM | 0.221 µM
NC(=O)N/N=C1/CCCC/C1=C\c1ccccc1 | > 100 µM | > 100 µM | > 100 µM | > 100 µM | – | > 100 µM | > 100 µM | > 100 µM | > 100 µM | > 100 µM | – | – | – | – | – | – | – | –
CN1CCN(c2ccc([N+](=O)[O-])c3no[n+]([O-])c23)CC1 | 1.63 µM and 0.634 µM | 1.6 µM and 0.92 µM | 3.39 µM and 2.16 µM | 1.2 µM | 1.79 µM and 0.985 µM | 5.59 µM and 2.67 µM | 0.712 µM and 1.08 µM | 2.91 µM and 2.51 µM | – | – | 0.152 µM | 0.137 µM | 0.697 µM | 0.188 µM | 0.141 µM | 0.991 µM | 0.378 µM | 1.04 µM
CCOC(=O)c1cn2ncnc(Oc3ccc(NC(=O)NCCN(CC)CC)c(Cl)c3)c2c1C | 4.75 µM | 3.82 µM | > 100 µM | 6.19 µM | 5.21 µM | 3.15 µM | 3.3 µM | 3.3 µM | – | – | 2 µM | 1.9 µM | 17.9 µM | 1.76 µM | 2.14 µM | 1.69 µM | 1.7 µM | 1.81 µM
NC(=O)C12CCC1C1CCCCC12N1CCOCC1 (centres undefined) | > 100 µM | > 100 µM | – | > 100 µM | – | > 100 µM | > 100 µM | > 100 µM | > 100 µM | > 100 µM | – | – | – | – | – | – | – | –
Cc1cccc(NC(=O)Cc2nc3ccccc3s2)c1C | – | > 100 µM | > 100 µM | – | – | > 100 µM | > 100 µM | > 100 µM | > 100 µM | > 100 µM | – | – | – | – | – | – | – | –
CC(C)(C)[Si](Nc1ccccc1)(c1ccccc1)c1ccccc1 | 20.6 µM | – | 29.8 µM | 28.3 µM | – | 32 µM | 41.8 µM | 34.2 µM | – | 28.4 µM | – | – | – | – | – | – | – | –
O=C(Nn1c2c(sc1=NC1CC1)C(=O)c1ccccc1C2=O)c1cc2ccc1CCc1ccc(cc1)CC2 | 6.45 µM | 14.9 µM | 5.83 µM | 14.4 µM | 3.29 µM | 5.22 µM | 1.75 µM | 2.76 µM | – | – | 1.94 µM | 2.48 µM | 1.81 µM | 2.26 µM | 1.42 µM | 2.4 µM | 0.57 µM | 1.43 µM
CO[C@@]12[C@H](COC(N)=O)C3=C(C(=O)C(C)=C(N)C3=O)N1C[C@@H]1N[C@@H]12 | 6.06 µM and 4.21 µM and 8.46 µM | 6.18 µM and 25 µM and 3.07 µM | 3.95 µM and 7.99 µM and 8.8 µM | 12.4 µM and 5.53 µM and 7.2 µM | 8.6 µM and 15.1 µM and 47 µM | 7.12 µM and 14.9 µM | 4.06 µM and 6.53 µM and 4.03 µM | 1.22 µM and 3.25 µM and 1.69 µM | 17.2 µM | – | 1.26 µM and 1.15 µM | – | 1.35 µM and 1.45 µM | 1.81 µM and 1.75 µM | 0.215 µM and 0.0824 µM | 2.18 µM | 2.26 µM and 1.38 µM | 1.6 µM
CC1(C)CC(O)CCCCCCOc2c(CN)cccc2NC(=O)c2nc(cnc2N)-c2ccc(cc2)S1(=O)=O (centres undefined) | 1.03 µM | 2.6 µM | 6.93 µM | 5.82 µM | 1.81 µM | 2.48 µM | 2.81 µM | 2.89 µM | – | – | 0.187 µM | 1.15 µM | 1.28 µM | 2.72 µM | < 0.01 µM | 1.13 µM | 1.31 µM | 1.5 µM
CCCCCCCCCCC(CN(CC)CC)C(O)c1ccccc1 (centres undefined) | 3.37 µM | 2.92 µM | 4.66 µM | 2.98 µM | 3.15 µM | 3.16 µM | 3.85 µM | 2.88 µM | – | – | 1.72 µM | 1.51 µM | 2.03 µM | 1.27 µM | 1.63 µM | 1.7 µM | 1.95 µM | 1.48 µM
c1cc(-c2cnn3nc(N4CCOCC4)ccc23)nc(NC2CC2)n1 | 24.6 µM | > 25 µM | > 25 µM | > 25 µM | > 25 µM | > 23.7 µM | > 25 µM | 16.7 µM | – | – | 7.55 µM | 7.21 µM | 5.59 µM | 5.64 µM | 5.38 µM | 6.64 µM | 12.1 µM | 5.76 µM
COc1ccc(Cn2cc3c(c2-c2ccccc2)CCc2cncnc2-3)cc1 | 14.9 µM | 17.5 µM | 26.7 µM | 28.5 µM | 18.9 µM | 21.6 µM | 12.8 µM | 14.2 µM | – | – | 3.65 µM | 3.55 µM | 11.5 µM | 10.8 µM | 4.66 µM | 8.71 µM | 3.18 µM | 3.72 µM
CCCCCC/C=C/CCCCCCCc1cccc(O)c1C(=O)O | > 100 µM | > 100 µM | – | – | – | > 100 µM | > 100 µM | – | > 100 µM | > 100 µM | – | – | – | – | – | – | – | –
O=C(Cc1nc2ccccc2s1)C(=O)Nc1ccc(Cl)cc1Cl | > 100 µM | – | > 100 µM | > 100 µM | – | > 100 µM | > 100 µM | – | > 100 µM | > 100 µM | – | – | – | – | – | – | – | –
